This is an account of results in patent US7071197B2, “N,N-disubstituted diazocycloalkanes” (Recordati S.A., priority 2002, dated 2006).

Experiment [1] has as its system rhythmic bladder-voiding contractions in anaesthetised rats. The experiment is described as follows: Rhythmic bladder-voiding contractions induced by bladder filling in anaesthetised rats. The class given is in vivo, rat. Particulars: for ED50: Rattus norvegicus, read-out: ED50 (frequency) (extrapolated dose inducing a reduction of the number of contractions > 30% in 50% of treated rats); for ED50 / ED10 min (extrapolated dose inducing 10 minutes of disappearance of the contractions): intravenous administration, anaesthetised rats; for time of disappearance of bladder contractions: after administration of 0.3 mg/kg. As to the method:
Female Sprague-Dawley rats weighing 225–275 g (Crl: CD® (SD) IGS BR, Charles River Italia) were used. The animals were housed with free access to food and water and maintained on a forced 12-hour alternating light-dark cycle at 22–24° C. for at least one week, except during the experiment. The activity on rhythmic bladder voiding contractions was evaluated according to the method of Dray (Dray J., Pharmacol. Methods, 13:157, 1985), with some modifications as in Guarneri (Guarneri, Pharmacol. Res. 27:173, 1993). Briefly, the rats were anaesthetised by subcutaneous injection of 1.25 g/kg (5 ml/kg) urethane, after which the urinary bladder was catheterised via the urethra using PE 50 polyethylene tubing filled with physiological saline. The catheter was tied in place with a ligature around the external urethral orifice and was connected to conventional pressure transducers (Statham P23 ID/P23 XL). […] The bladder was then filled via the recording catheter by incremental volumes of warm (37° C.) saline until reflex bladder-voiding contractions occurred (usually 0.81.5 ml). For intravenous injection of bioactive compounds, PE 50 polyethylene tubing filled with physiological saline was inserted into the jugular vein.
From the cystometrogram, the number of contractions recorded 15 minutes before (basal values) and after treatment, as well as the mean amplitude of these contractions (mean height of the peaks in mmHg), was evaluated.
Since most compounds produced an effect that was relatively rapid in onset and led to a complete cessation of bladder contractions, bioactivity was conveniently estimated by measuring the duration of bladder quiescence (i.e., the length of the time during which no contractions occurred). The number of tested animals showing a reduction in the number of contractions higher than 30% of that observed in the basal period was recorded too.
The extrapolated doses which induced a reduction in the number of contractions greater than 30% in 50% of the treated rats (ED50) were evaluated by the method of Bliss (Bliss C. I., Quart J. Pharm. Pharmacol. 11, 192–216, 1938).

The target of experiment [2] is T1, human α1d-adrenoceptor (Homo sapiens, UniProt P25100).
T1 construct: expressed in transfected cells
T1 sequence (P25100 1-572): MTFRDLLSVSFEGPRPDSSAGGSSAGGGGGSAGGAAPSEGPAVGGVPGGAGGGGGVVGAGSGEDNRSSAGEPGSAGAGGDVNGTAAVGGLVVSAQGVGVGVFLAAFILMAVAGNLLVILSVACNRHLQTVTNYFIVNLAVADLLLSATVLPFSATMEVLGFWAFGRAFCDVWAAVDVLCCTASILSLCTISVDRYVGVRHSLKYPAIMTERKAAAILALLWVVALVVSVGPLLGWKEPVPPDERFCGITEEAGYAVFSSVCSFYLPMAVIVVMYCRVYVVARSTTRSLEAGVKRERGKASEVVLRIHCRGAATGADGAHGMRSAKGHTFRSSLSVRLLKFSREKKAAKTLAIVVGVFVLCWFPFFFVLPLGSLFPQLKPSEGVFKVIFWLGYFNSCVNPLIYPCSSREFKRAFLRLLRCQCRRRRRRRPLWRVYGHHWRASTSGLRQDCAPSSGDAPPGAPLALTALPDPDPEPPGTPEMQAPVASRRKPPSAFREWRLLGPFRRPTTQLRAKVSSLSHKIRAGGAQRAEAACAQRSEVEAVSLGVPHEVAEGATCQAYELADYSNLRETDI
Nature of the experiment: [3H]prazosin binding to cloned human α1-adrenoceptor subtypes (α1d). Particulars: for Ki: [3H]prazosin, CHO cell membranes, read-out: Binding affinity (Ki, nM) α1d; for α1d/S-HT1A: selectivity: ratio of Ki at α1d and Ki at 5-HT1A. Here is the method: Binding to cloned human α1-adrenoceptor subtypes was performed in membranes from CHO cells (chinese hamster ovary cells) transfected by electroporation with DNA expressing the gene encoding each α1-adrenoceptor subtype. Cloning and stable expression of the human α1-adrenoceptor gene was performed as previously described (Testa et al. Pharmacol. Comm., 6: 79–86,1995).
CHO cells were grown in suspension in Iscove's modified Dulbecco's medium, supplemented with 10% fetal calf serum and gentamicin (50 μg/ml), at 37° C. in 7% CO2 in an humidified incubator. Cells were collected by centrifugation, lised in ice-cold Tris 5 mM and EDTA 5 mM buffer (pH 7.4) and gently homogenised. Homogenates were centrifuged at 40000×g×20 min and pellets were resuspended in a small volume of ice-cold Tris 5 mM and EDTA 5 mM buffer (pH 7.4) and immediately frozen and stored at −80° C. until use.
CHO cell membranes were resuspended and incubated in 50 mM Tris, pH 7.4, with 0.2 nM [^3H]prazosin, in a final volume of 1.02 ml for 30 min at 25° C., in absence or presence of competing drugs. Non-specific binding was determined in the presence of 10 μM phentolamine. The incubation was stopped by rapid filtration through 0.2% polyethyleneimine pretreated Schleicher & Schuell GF52 filters using a Tomtec (PerkinElmer) cell harvester. The filters were washed with 3×1 ml of ice-cold Tris buffer, dried and the radioactivity was measured in a Betaplate (Wallac) liquid scintillation counter.
The inhibition of specific binding by the compounds was analysed to estimate the IC50 value by the non-linear curve-fitting program Allfit (De Lean et al. Am. J. Physiol. 235, E97-E102, 1978). The IC50 value is converted to an affinity constant (Ki) by the equation of Cheng & Prusoff (Biochem. Pharmacol. 22: 3099–3108, 1973).

Structures are written as SMILES.

Consider `COc1ccccc1N1CCN(CC[C@H](c2ccccc2F)[C@@H](O)C2CCCCC2)CC1` [Ex. 1Y, 1-[(3R,4S)-4-cyclohexyl-4-hydroxy-3-(2-fluorophenyl)-butyl]-4-(2-methoxyphenyl)-piperazine], for which, in experiment [1], the ED50 is 0.015 mg/kg, the “time of disappearance of bladder contractions” value was 24 min and the “ED10 min (extrapolated dose inducing 10 minutes of disappearance of the contractions)” value (“ED10 min” for short) was 0.023 mg/kg. Further, in experiment [1] (compared with Ex. 5), the “extrapolated dose inducing 10 minutes of disappearance of the contractions, fold lower than Ex. 5” value is given as “at least 2 fold”. Further, in experiment [2], the Ki turned out to be 1.2 nM and the α1d/S-HT1A came to 3.2.

On to `COc1ccccc1N1CCN(CC[C@H](c2ccccc2)[C@@H](O)C2CCCCC2)CC1` (racemic) [Ex. 5, 1-[(RS,SR)-4-Cyclohexyl-4-hydroxy-3-phenyl-butyl]-4-(2-methoxyphenyl)-piperazine, reference compound], for which, in experiment [1], the ED50 is 0.018 mg/kg, the “time of disappearance of bladder contractions” value came out at 14 min and the “ED10 min” value is 0.066 mg/kg. In experiment [2], the Ki stood at 0.5 nM and the α1d/S-HT1A was determined as 0.8.

Turning to `COc1ccccc1N1CCN(CC[C@H](c2ccccc2F)[C@H](O)C2CCCCC2)CC1` [Ex. 2X, 1-[(3R,4R)-4-cyclohexyl-4-hydroxy-3-(2-fluorophenyl)-butyl]-4-(2-methoxyphenyl)-piperazine], in experiment [2], the Ki came out at 0.5 nM and the α1d/S-HT1A is given as 2.1.

As for `COc1ccccc1N1CCN(CC[C@@H](c2ccccc2F)[C@H](O)C2CCCCC2)CC1` (racemic) [Ex. 1, 1-[(SR-RS)-4-cyclohexyl-4-hydroxy-3-(2-fluorophenyl)-butyl]-4-(2-methoxyphenyl)-piperazine], in experiment [1], the ED50 was 0.03 mg/kg and the “ED10 min” value is 0.198 mg/kg. Moreover, in experiment [2], the Ki is 1 nM and the α1d/S-HT1A came to 7.7.
